Source: US20150072416A1, “METABOLITE FOR IMPROVING PRODUCTION, MAINTENANCE AND PROLIFERATION OF PLURIPOTENT STEM CELLS, COMPOSITION COMPRISING THE SAME, AND METHOD OF CULTURING PLURIPOTENT STEM CELL USING THE SAME” (KOREA RESEARCH INSTITUTE OF BIOSCIENCE AND BIOTENOLOGY, priority 2012, published 2015)

System: embryonic stem cells
Assay: Embryonic stem cells treated with NAD+ synthesis inhibitor FK866 and NAD precursors (NAD level, AP activity, apoptosis)
Type: cell-based, human
Procedure: Embryonic stem cells were treated with nicotinamide and related compounds, and after 6 days, protein was isolated from the cells. NAD cycling enzyme was added to and reacted with 20 μg of the protein per each group at room temperature for 5 minutes, and then a NADH developer was added and reacted therewith for 2-3 hours. The absorbance at 450 nm was measured using a microplate reader, and the amount of the […] was quantified.
AP staining was performed using a commercial AP kit (Sigma) according to the manufacturer's instruction. Images of AP-positive cells were recorded with HP Scanjet G4010. Also, bight field images were obtained with an Olympus microscope (IX51, Olympus, Japan).
In order to examine the effect of nicotinamide on a reduction in the apoptosis of human pluripotent stem cells, dual apoptosis assay (Biotium, Hayward, Calif.) was performed. Embryonic stem cells or cells reprogrammed were stained with NucView™488 Caspase-3 Substrate (green)/Annextin V (red) at room temperature for 30 minutes, followed by washing with PBS. At least 4 sections of each sample were imaged with an Olympus fluorescence microscope (IX51, Olympus), and the number of cells stained with green (Caspase-3) was counted to quantify the degree of apoptosis.

Row | SMILES | apoptosis (treated with FK866) | concentration of NAD in the cells (treated with FK866) | state of the embryonic stem cells (treated with FK866) | recovery from damage caused by FK866 (co-treatment with FK866, also in mTeSR1-CDM)
1 | O=C(/C=C/c1cccnc1)NCCCCC1CCN(C(=O)c2ccccc2)CC1 [FK866] | induced | decreased | differentiated | –
2 | O=C(O)c1cccnc1 [nicotinic acid] | – | – | – | recovered
